In US4960790A, “Derivatives of taxol, pharmaceutical compositions thereof and methods for the preparation thereof” (University of Kansas, priority 1989, dated 1990):
Where a name gives a salt, the structure may show the parent alone. Read-outs that look alike come from different tables or passages of the source.

Legend:
[1] = Chemical stability in buffer or water; assay type: physicochemical
Experimental: The compound was subjected to stability studies according to the following procedures.
(§1) Stabilities of derivatives at various pHs were studied at 25° and 37°. The plasma studies were conducted at 37° in rat and human plasma. Human plasma was obtained from Watkins Hospital and rat plasma was obtained from the Animal Care Unit of the University of Kansas. The derivative concentration used was around 20-25 μg/ml. A stock solution of the compound was prepared at 0.8-1.0 mg/mL and was added to plasma to give the desired concentration (20-25 μg/mL). One hundred microliter samples were removed and was quenched with 250 uL. acetonitrile and centrifuged to precipitate the plasma proteins. The degradation kinetics were studied by HPLC plotting peak area vs. time. The t90 and t50 were calculated. Both chemical and plasma studies were followed by high performance liquid chromatography using a RP-8 column (15 cm) and a precolumn (5 cm). The detector was set at 227 nm. The mobile phase consisted of 0.02M acetate (pH 5): acetonitrile 50:50 or 35:65 and the flow rate ranged from 1-1.5 mL/min or the same solvents containing 0.001M tetrabutylammoniumydrogensulphate and a flow rate of 1 mL/min.
The identity of this peak was further confirmed by the degradation studies of the new derivatives. Thus, 2'(DMG) taxol was incubated with water at 37° and the product was concentrated and purified by preparative TLC. The product after purification was analyzed by HPLC and spectroscopic methods.

microtubule assembly = assay: In vitro microtubule assembly kinetics; assay type: biochemical; conditions: rank order
Experimental: (A) In vitro Microtubule Assembly Kinetics Studies
The microtubule assembly study was conducted using both 2' and 7-derivatives according to the in vitro procedures disclosed, for example, in Mellado et al., Biochemical and Biophysical Research Communications, Vol. 124, No. 2 (1984), pp. 329-336; Magri et al., J. Org. Chem., 51, 797-802 (1986); and Parness et al., Biochemical and Biophysical Research Communications, Vol. 105, No. 3, pp. 1082-1091 (1982).

B-16 melanoma cells = assay: In vitro B16 melanoma cell proliferation; assay type: cell-based; conditions: rank order
Experimental: These studies were conducted according to standard procedures as described in Donoso and Himes, Cancer Biochem. Biophysics, vol. 7, (1984), p. 133.

[2] = test system: human mammary carcinoma MX-1 xenograft; assay: Subrenal capsule human mammary carcinoma MX-1 xenograft in mice; conditions: for % T/C: Q4D Days 1, 5, 9; for % T/C / # OF ANMLS ALIVE CALC/TOTAL / Average tumor WEIGHT CHANGE (DELTA) / Average tumor weight, FINAL: Day 11; for ANML BODY WT DIFF (test minus control) / TEST BODY WT CHG / # OF ANMLS ALIVE CALC/TOTAL / Average tumor WEIGHT CHANGE (DELTA) / Average tumor weight, FINAL: Q4D; for ANML BODY WT DIFF (test minus control) / TEST BODY WT CHG: Day 1 to 11
Excerpt: The procedures followed are those described at pages 23-24 of NIH Publication No. 84-2635, In Vivo Cancer Model (February 1984).
In the procedure, test groups of mice (6 mice per test group) and control groups of 12 mice per group are utilized. A tumor fragment (human mammary carcinoma MX-1 xenograft), is implanted under the membranous covering of the kidney of each mouse.
Day 0: Anesthetize animals. Record body weight (Weigh Day 1). Implant tumor, measure and record. Randomize animals after they recover from the anesthetic. Run bacterial cultures. Determine solubilities of test agent. Record deaths daily.
Day 1: Check cultures. Discard experiment if contaminated. Prepare test materials. Initiate test agent injections (in the nape of the neck) based on individual body weight. Treatment is Q4D on Days 1, 5, and 9. Prepare test agent fresh on each injection day and administer based on individual body weight for that day.
Days 5 and 9: Prepare test agent fresh on each injection day and administer based on individual body weight for that day.
Day 11: End and evaluate experiment. Record body weights (Weigh Day 2). Measure tumor in OMU's (Ocular Micrometer Unit--10 OMU's=1 mm) and record.
The parameter measured is mean tumor weight change (delta) based on length and width measurements in millimeters. Mean animal body weights are computed for Day 1 and Day 11, compute T/C for all test groups with>65% survivors on Day 11. An excessive body weight change difference (test minus control) may also be used in evaluating toxicity. The dimensions are measured and recorded in Ocular Micrometer Units (OMU). A computer is utilized for the following:
(1) Converts OMU's to millimeters (mm).
(2) Calculates tumor weights (mgs) from tumor dimensions (mm×mm) following the formula for the volume of a prolate ellipsoid: [formula] (3) Calculates the change (delta) in mean tumor weight for each group of mice:
Change in Mean Tumor Weight=Mean Tumor WeightFINAL -Mean Tumor WeightINITIAL.
(4) Calculates the change (delta) in mean tumor weight for test (T) and control (C) groups.
(5) Calculates T/C% for all test groups with>65% survivors on Final Evaluation Day: [formula]

[3] = Plasma stability, rat plasma; assay type: in vitro ADME; conditions: rat plasma (20 μg/mL), 37° C.
Experimental: as §1

Solubility = assay type: physicochemical; conditions: read-out: Solubility
[4] = Plasma stability, human plasma; assay type: in vitro ADME; conditions: 37° C.
Experimental: as §1, with “The derivative concentration used was around 20-25 μg/ml. A stock solution of the compound was prepared at 0.8-1.0 mg/mL and was added to plasma to give the desired concentration (20-25 μg/mL).” left out

[5] = Plasma stability, dog plasma; assay type: in vitro ADME; conditions: dog plasma (20 μg/mL), 37° C.

CC(=O)O[C@H]1C(=O)[C@@]2(C)[C@H]([C@H](OC(=O)c3ccccc3)[C@]3(O)C[C@H](OC(=O)[C@H](OC(=O)CN(C)C)[C@@H](NC(=O)c4ccccc4)c4ccccc4)C(C)=C1C3(C)C)[C@]1(OC(C)=O)CO[C@@H]1C[C@@H]2O [Compound 1, 2'-(N,N-dimethylglycyl)taxol]
Identity of degradation product ([1]; incubated with water at 37°): the product is taxol | Ability to assemble microtubules (order) (microtubule assembly): taxol >7-(N,N-dimethylglycyl)taxol(11)>2'(N,N-diethylaminopropionyl)taxol(8)>2'(N,N-dimethylglycyl)taxol(2) | Order of effectiveness in B-16 melanoma cell proliferation study (B-16 melanoma cells): taxol>2'-(N,N-dimethylglycyl)taxol>2'-(N,N-diethylaminopropionyl)taxol>7-(N,N-dimethylglycyl)taxol | % T/C ([2]; Table 1, 5.90 mg/kg): -78% | ANML BODY WT DIFF (test minus control) ([2]; Table 1, 5.90 mg/kg): -.5 | TEST BODY WT CHG ([2]; Table 1, 5.90 mg/kg): -2.2 | # OF ANMLS ALIVE CALC/TOTAL ([2]; Table 1, 5.90 mg/kg): 6/6 | Average tumor WEIGHT CHANGE (DELTA) ([2]; Table 1, 5.90 mg/kg): -.48 MGS | Average tumor weight, FINAL ([2]; Table 1, 5.90 mg/kg): .13 MGS | % T/C ([2]; Table 1, 8.90 mg/kg): -53% | ANML BODY WT DIFF (test minus control) ([2]; Table 1, 8.90 mg/kg): .8 | TEST BODY WT CHG ([2]; Table 1, 8.90 mg/kg): -.9 | # OF ANMLS ALIVE CALC/TOTAL ([2]; Table 1, 8.90 mg/kg): 5/6 | Average tumor WEIGHT CHANGE (DELTA) ([2]; Table 1, 8.90 mg/kg): -.41 MGS | Average tumor weight, FINAL ([2]; Table 1, 8.90 mg/kg): .36 MGS | ANML BODY WT DIFF (test minus control) ([2]; Table 1, 13.30 mg/kg): -.6 | TEST BODY WT CHG ([2]; Table 1, 13.30 mg/kg): -2.3 | # OF ANMLS ALIVE CALC/TOTAL ([2]; Table 1, 13.30 mg/kg): 4/6 | Average tumor WEIGHT CHANGE (DELTA) ([2]; Table 1, 13.30 mg/kg): -.64 MGS | Average tumor weight, FINAL ([2]; Table 1, 13.30 mg/kg): .00 MGS | ANML BODY WT DIFF (test minus control) ([2]; Table 1, 20.00 mg/kg): -.5 | TEST BODY WT CHG ([2]; Table 1, 20.00 mg/kg): -2.2 | # OF ANMLS ALIVE CALC/TOTAL ([2]; Table 1, 20.00 mg/kg): 4/6 | Average tumor WEIGHT CHANGE (DELTA) ([2]; Table 1, 20.00 mg/kg): -.56 MGS | Average tumor weight, FINAL ([2]; Table 1, 20.00 mg/kg): .00 MGS | % T/C ([2]; Table 1, 30.00 mg/kg): TOX | TEST BODY WT CHG ([2]; Table 1, 30.00 mg/kg): -3.8 | # OF ANMLS ALIVE CALC/TOTAL ([2]; Table 1, 30.00 mg/kg): 1/6 | Average tumor weight, FINAL ([2]; Table 1, 30.00 mg/kg): .00 MGS

CC(=O)O[C@H]1C(=O)[C@@]2(C)[C@H]([C@H](OC(=O)c3ccccc3)[C@]3(O)C[C@H](OC(=O)[C@H](OC(=O)CN(C)C)[C@@H](NC(=O)c4ccccc4)c4ccccc4)C(C)=C1C3(C)C)[C@]1(OC(C)=O)CO[C@@H]1C[C@@H]2O [Compound 2, Methanesulphonic acid salt of 2'-(N,N-dimethylglycyl)taxol]
half-life [3]: 0.0508 h | half-life ([1]; 0.02 M Acetate (0.1 mg/mL), pH 3.5, 25° C.): 96.2 h | half-life ([1]; 0.02 M Acetate (0.1 mg/mL), pH 4.5, 25° C.): 55.4 h | half-life ([1]; water (2 mg/mL), pH 3.8, 37° C.): 89.8 h | solubility (Solubility; Clear): 2000 µg/mL | solubility (Solubility; Slightly Hazy): 15000 µg/mL | half-life ([4]; human plasma (20 μg/mL)): 3.31 h | half-life [5]: 2.03 h

CC(=O)O[C@H]1C(=O)[C@]2(C)[C@@H](OC(=O)CN(C)C)C[C@H]3OC[C@@]3(OC(C)=O)[C@H]2[C@H](OC(=O)c2ccccc2)[C@]2(O)C[C@H](OC(=O)[C@H](O)[C@@H](NC(=O)c3ccccc3)c3ccccc3)C(C)=C1C2(C)C [Compound 8, Methanesulphonic acid salt of 7-(dimethylglycyl)taxol]
half-life [3]: 17.3 h | half-life ([1]; 0.02 M Acetate, pH 3.5, 25° C.): 3400 h | half-life ([1]; 0.02 M Phosphate, pH 7.4, 25° C.): 33.8 h | half-life ([1]; 0.02 M acetate, pH 4.5, 25° C.): 1720 h | solubility (Solubility): > 2000 µg/mL | half-life ([4]; human plasma (10 μg/mL)): 24.4 h | half-life ([4]; human plasma (20 μg/mL)): 27.7 h
